Data: ChEMBL document CHEMBL4819113, “Chemical modifications of ergostane-type triterpenoids from Antrodia camphorata and their cytotoxic activities” (Bioorg Med Chem Lett, 2021)

Assays:
U-251 [1] = experiment: Cytotoxicity against human U-251 cells by MTT assay; assay type: functional, cell-based
SW480 [2] = experiment: Cytotoxicity against human SW480 cells by MTT assay; assay type: functional, cell-based
HL-60 [3] = experiment: Cytotoxicity against human HL-60 cells by MTT assay; assay type: functional, cell-based
MCF7 [4] = experiment: Cytotoxicity against human MCF7 cells by MTT assay; assay type: functional, cell-based
L02 = experiment: Cytotoxicity against human L02 cells by MTT assay; assay type: cell-based
HL-60 [5] = experiment: Cytotoxicity against human HL-60 cells; assay type: functional, cell-based
U-251 [6] = experiment: Cytotoxicity against human U-251 cells; assay type: functional, cell-based
MCF7 [7] = experiment: Cytotoxicity against human MCF7 cells; assay type: functional, cell-based
SW480 [8] = experiment: Cytotoxicity against human SW480 cells; assay type: functional, cell-based

Compound | IC50 (U-251 [1]) | IC50 (SW480 [2]) | IC50 (HL-60 [3]) | IC50 (MCF7 [4]) | Activity (L02) | IC50 (HL-60 [5]) | IC50 (U-251 [6]) | IC50 (MCF7 [7]) | IC50 (SW480 [8])
C=C(CC[C@@H](C)[C@H]1CC[C@H]2C3=C(C(=O)C[C@]12C)[C@@]1(C)CCC(=O)[C@@H](C)[C@@H]1C[C@H]3OC(C)=O)[C@H](C)C(=O)Nc1[nH]cnc1C(N)=O | 17.1 µM | 17.9 µM | > 100 µM | 17.6 µM | – | – | – | – | –
C=C(CC[C@@H](C)[C@H]1CC[C@H]2C3=C(C(=O)C[C@]12C)[C@@]1(C)CC/C(=N\O)[C@@H](C)[C@@H]1C/C3=N/O)[C@H](C)C(=O)OC | 3.3 µM | 2.2 µM | 3.7 µM | 18.2 µM | Non-Toxic | – | – | – | –
C=C(CC[C@@H](C)[C@H]1CC[C@H]2C3=C(C(=O)C[C@]12C)[C@@]1(C)CCC(=O)[C@@H](C)[C@@H]1C[C@H]3OC(C)=O)[C@H](C)C(=O)Nc1ncc2ccccc2n1 | 2.9 µM | 40.8 µM | 8.9 µM | 8.6 µM | Non-Toxic | – | – | – | –
C=C(CC[C@@H](C)[C@H]1CC[C@H]2C3=C(C(=O)C[C@]12C)[C@@]1(C)CCC(=O)[C@@H](C)[C@@H]1C[C@H]3OC(C)=O)[C@H](C)C(=O)Nc1ccc2ccccc2n1 | 95.8 µM | > 100 µM | 96.3 µM | > 100 µM | – | – | – | – | –
C=C(CC[C@@H](C)[C@H]1CC[C@H]2C3=C(C(=O)C[C@]12C)[C@@]1(C)CCC(=O)[C@@H](C)[C@@H]1C[C@H]3OC(C)=O)[C@H](C)C(=O)Nc1ccc2[nH]ccc2c1 | 10.4 µM | > 100 µM | > 100 µM | 12.3 µM | – | – | – | – | –
C=C(CC[C@@H](C)[C@H]1CC[C@H]2C3=C(C(=O)C[C@]12C)[C@@]1(C)CCC(=O)[C@@H](C)[C@@H]1C[C@H]3OC(C)=O)[C@H](C)C(=O)OC | – | – | – | – | – | 16.8 µM | 11.4 µM | 46.3 µM | 15.4 µM
C=C(CC[C@@H](C)[C@H]1CC[C@H]2C3=C(C(=O)C[C@]12C)[C@@]1(C)CCC(=O)[C@@H](C)[C@@H]1CC3=O)[C@H](C)C(=O)OC | – | – | – | – | – | 25.2 µM | 44.9 µM | 50.7 µM | > 100 µM
C=C(CC[C@@H](C)[C@H]1CC[C@H]2C3=C(C(=O)C[C@]12C)[C@@]1(C)CCC(=O)[C@@H](C)[C@@H]1C[C@H]3OC(C)=O)[C@H](C)C(=O)/N=c1/cc(CCc2ccccc2)[nH][nH]1 | > 100 µM | > 100 µM | > 100 µM | > 100 µM | – | – | – | – | –
C=C(CC[C@@H](C)[C@H]1CC[C@H]2C3=C(C(=O)C[C@]12C)[C@@]1(C)CCC(=O)[C@@H](C)[C@@H]1C[C@H]3OC(C)=O)[C@H](C)C(=O)Nc1cccc2cccnc12 | > 100 µM | > 100 µM | 89.2 µM | > 100 µM | – | – | – | – | –
C=C(CC[C@@H](C)[C@H]1CC[C@H]2C3=C(C(=O)C[C@]12C)[C@@]1(C)CCC(=O)[C@@H](C)[C@@H]1C[C@H]3OC(C)=O)[C@H](C)C(=O)Nc1nc[nH]n1 | 93.2 µM | > 100 µM | > 100 µM | > 100 µM | – | – | – | – | –
C=C(CC[C@@H](C)[C@H]1CC[C@H]2C3=C(C(=O)C[C@]12C)[C@@]1(C)CCC(=O)[C@@H](C)[C@@H]1C[C@H]3OC(C)=O)[C@H](C)C(=O)O | – | – | – | – | – | > 100 µM | > 100 µM | > 100 µM | > 100 µM
C=C(CC[C@@H](C)[C@H]1CC[C@H]2C3=C(C(=O)C[C@]12C)[C@@]1(C)CCC(=O)[C@@H](C)[C@@H]1C[C@H]3OC(C)=O)[C@H](C)C(=O)Nn1cnnc1 | 82.4 µM | > 100 µM | > 100 µM | > 100 µM | – | – | – | – | –
C=C(CC[C@@H](C)[C@H]1CC[C@H]2C3=C(C(=O)C[C@]12C)[C@@]1(C)CCC(=O)[C@@H](C)[C@@H]1C[C@H]3OC(C)=O)[C@H](C)C(=O)Nc1ccccc1N | 27.4 µM | > 100 µM | 0.7 µM | 29.2 µM | Non-Toxic | – | – | – | –
C=C(CC[C@@H](C)[C@H]1CC[C@H]2C3=C(C(=O)C[C@]12C)[C@@]1(C)CCC(=O)[C@@H](C)[C@@H]1CC3=O)[C@H](C)C(=O)O [ANTCIN B] | – | – | – | – | – | > 100 µM | > 100 µM | > 100 µM | > 100 µM
CC(=O)O[C@H]1C(=O)[C@@]2(C)[C@H]([C@H](OC(=O)c3ccccc3)[C@]3(O)C[C@H](OC(=O)[C@H](O)[C@@H](NC(=O)c4ccccc4)c4ccccc4)C(C)=C1C3(C)C)[C@]1(OC(C)=O)CO[C@@H]1C[C@@H]2O [PACLITAXEL] | – | – | 0.08 µM | – | – | – | – | – | –
